In patent publication US10988444B2, “Antimicrobial compounds” (NEWSOUTH INNOVATIONS PTY LIMITED, priority 2016, dated 2021):
Converted amounts (≈) assume the structure as drawn. “And” between values parts separate entries of the source, which are not always exact repeats. Equal entries are not always repeated. Where two headings read alike, the source gives them in different places.

Columns and labels:
[1] = Membrane conduction, tBLMs containing 30% POPG, Example 2; details: negatively charged lipid, 50 μM, preliminary study
Description: Tethered bilayer lipid membranes (tBLMs) associated with alternating current electrical impedance spectroscopy techniques were employed to determine whether the compounds (24a, 38b, 42d, 43d) are lytic to cell membranes. Sparsely tethered tBLMs containing 30% palmitoyl-oleoyl-phosphati-dylglycerol (POPG) were created using the solvent-exchange technique described by Cranfield et al. in 2015 (see Cranfield, C. G.; Bettler, T.; Cornell, B. Langmuir 2015, 31 (1), 292-298). The tBLM conduction responses of compounds (24a, 38b, 42d, 43d) were compared to that of LL-37, a cathelicidin AMP that is known to permeabilise membranes.

S. aureus (SA38) = assay: Minimal inhibitory concentration (MIC) assay, Example 2; format: cell-based; details: Staphylococcus aureus, TSB, 37° C., 24 h
Experimental: A single colony of bacteria was cultured overnight in TSB at 37° C. The resulting bacterial culture was collected by centrifugation and re-suspended in TSB twice. The optical density (OD) of the resulting culture was adjusted to OD600=0.1 in TSB (equivalent to 10^8 colony forming unit (CFU)/mL bacteria), and was further diluted to 10^5 CFU/mL in TSB. 100 μL of the bacterial solution was then added to wells of a 96-well plate containing 100 μL serially diluted compound, with final concentration ranging from 8-250 μM. The plates were then incubated at 37° C. for 24 h and the data was recorded by measuring the OD value at 600 nm using a Wallac Victor (Perkin-Elmer) microplate reader. […] Each experiment was performed in triplicate and was repeated in two independent experiments. The results of the MIC assay are given below in Table 2.

[2] = tested on: MRC-5 normal human lung fibroblasts; assay: Cytotoxicity assay, Alamar blue, Example 2; format: cell-based; details: for IC50: Homo sapiens, MRC5, MRC-5, concentration which killed half of the cells
Experimental: The in vitro toxicity of the compounds (24a, 38b, 42d, 43d) was determined against MRC-5 normal human lung fibroblasts using the Alamar blue assay (see O'Brien, J.; Wilson, I.; Orton, T.; Pognan, F. Eur. J. Biochem. 2000, 267 (17), 5421-5426). A dose-response curve for each compound was generated to determine the IC50 values (concentration of compound which killed half of the cells) and the IC50 values were then used to determine the therapeutic window (IC50 value divided by MIC value) and specificity of the compounds (Table 3).

E. coli [3] = assay: Minimal inhibitory concentration (MIC) determination, Example 1; format: cell-based; details: 24 h, MHB, 37° C.; for MIC: Escherichia coli, read-out: Minimum inhibitory concentration (MIC) E. coli
Experimental: (§1) The antibacterial activity of the compounds was determined by the determination of minimal inhibitory concentration (MIC) by following the previously published protocol (see Nizalapur, S.; Ho, K. K.; Kimyon, Ö.; Yee, E.; Berry, T.; Manefield, M.; Cranfield, C. G.; Willcox, M.; Black, D. S.; Kumar, N. Org. Biomol. Chem. 2016, 14, 3623). The compounds to be tested were dissolved and diluted in autoclaved Millipore water. A single colony of bacteria was cultured overnight in TSB at 37° C. The resulting bacteria were collected by centrifugation and re-suspended in the same volume of MHB twice. Optical density (OD) of the resulting culture was adjusted to 0.1 at 600 nm (10^8 CFU/mL) in MHB, and the adjusted culture was further diluted to […] in MHB. Then, 100 μL of the bacterial solution was added to wells of a 96-well plate containing 100 μL of serially diluted compound. Two controls were also prepared: one containing 100 μL of MHB media and 100 μL sterile water, and the other containing 100 μL of bacterial solution and 100 μL sterile water. […] The MIC value was determined as the lowest concentration of compound that inhibited the complete growth of the bacteria (i.e. OD similar to that of the control having no bacteria). Each experiment was performed in triplicate and was repeated in three independent experiments.
(§2) The results of the MIC assay are given below in Table 1.

S. aureus [4] = assay: as above; format: cell-based; details: Staphylococcus aureus
Experimental: as §1, §2

S. marcescens [5] = assay: Biofilm disruption assay, established biofilms, crystal violet staining; format: cell-based, Serratia marcescens; details: 250 μM, 24 h treatment
Experimental: (§3) Bacterial cultures were grown in TSB media for overnight at 37° C. with shaking at 150 r.p.m. Cultures were diluted (1:20) in YPD medium and 200 μl aliquots were dispensed to flat bottom 96-well plate wells (Sarstedt Australia). Cultures were supplemented with varying concentrations of synthetic compounds dissolved in water. For pre-established biofilm assay, cultures were grown in 96-well plate wells overnight prior to supplementation with synthetic compounds. Control cultures were supplemented with an equal amount of DMSO. Plates were sealed with self-adhesive microplate sealers (TopSeal-A, PerkinElmer) to allow air diffusion and to prevent condensation. Cultures were incubated overnight at 37° C. with shaking at 150 r.p.m. Biofilms adhered on polystyrene substratum were quantified by crystal violet staining as described previously (see Wiegand, I.; Hilpert, K.; Hancock, R. E. W. Nat. Protocols 2008, 3 (2), 163-175). All cultures were prepared in triplicates. Error bars represent the standard error of three independent experiments (n=3).
(§4) The biofilm disruption activities of the compounds were investigated using crystal violet staining according to a previously published protocol (G. A. O'Toole, J Vis Exp, 2011, (47), pii: 2437, DOI: 10.3791/2437, 2437). The ability of compounds (34-38, 51-56, 61, 62, 65 and 66) to disrupt the established biofilms of the Gram-positive bacteria S. aureus and the Gram-negative bacteria Pseudomonas aeruginosa, Serratia marcescens and E. coli, was determined at a concentration of 250 μM. In this assay, bacterial cultures were grown on a polystyrene substratum overnight prior to treatment with the compounds. In addition, the ability of these compounds to inhibit the formation of biofilms of P. aeruginosa and S. marcescens was also investigated at 250 μM, whereby the bacterial cultures were grown in the presence of test compounds.

S. marcescens [6] = assay: Biofilm inhibition assay (inhibition of biofilm formation), crystal violet staining; format: cell-based; details: Serratia marcescens, 24 h
Experimental: as §3, with “no-established” for “pre-established”, “along” for “prior to supplementation”, “water.” for “DMSO.”
as §4

S. aureus [7] = assay: Biofilm disruption assay, established biofilms, crystal violet staining; format: cell-based; details: 250 μM, 24 h treatment
Experimental: as §3, §4

[8] = tested on: Pseudomonas aeruginosa (PAO1); assay: as above; format: cell-based; details: 250 μM, 24 h treatment
Experimental: as §3, §4

[9] = tested on: MRC-5 normal human lung fibroblasts; assay: Toxicity assay, Alamar blue, Example 1; format: cell-based; details: for IC50: Homo sapiens, MRC5, 72 h incubation, read-out: toxicity (IC50) against MRC-5 human fibroblast cells
Experimental: The normal human lung fibroblasts MRC-5 were cultured in minimal essential medium (MEM, Invitrogen) supplemented with 10% foetal calf serum (FCS), 1% L-glutamine-penicillin-streptomycin, 2% sodium bicarbonate, 1% non-essential amino acids (NEAA) and 1% sodium pyruvate. The cell line was maintained at 37° C. in 5% CO2 as an adherent monolayer and was passaged upon reaching confluence by standard cell culture techniques. MRC-5 cells were seeded at 2×10^4 cells per well in 96-well plates to ensure full confluence (quiescence). Cells were treated 24 h after seeding with 0.1 to 1000 μM of compounds. After 72 h drug incubation, the treated media was replaced with fresh media containing 10% Alamar blue and the cells were incubated for another 6 h. The metabolic activity was detected by spectrophotometric analysis by assessing the absorbance of Alamar blue as previously described by Pasquier et. al (see Pasquier, E.; Ciccolini, J.; Carre, M.; Giacometti, S.; Fanciullino, R.; Pouchy, C.; Montero, M.-P.; Serdjebi, C.; Kavallaris, M.; André, N. Oncotarget 2011, 2, 797).
Cell proliferation was determined and expressed as a percentage of untreated control cells. The determination of IC50 values was performed using GraphPad Prism 6 (San Diego, Calif., USA).
To further evaluate the utility of these novel guanylated peptidomimetics for medical applications, it was essential to determine their specificity towards bacterial cells over mammalian cells.

E. coli [10] = assay: Biofilm disruption assay, established biofilms, crystal violet staining; format: cell-based; details: 250 μM, 24 h treatment
Experimental: as §3, §4

[11] = MHB, 37° C., 24 h, read-out: Minimum inhibitory concentration (MIC) S. aureus
[12] = MIC in μM as compared with MRC-5 IC50, read-out: equivalent MIC values

SMILES | tBLM conduction response [1] | MIC (S. aureus (SA38)) [µM] | IC50 [2] [µM] | MIC (E. coli [3]) [µg/mL] | MIC (S. aureus [4]; [11]) [µg/mL] | inhibition at 250 µM (S. marcescens [6]) [%] | MIC (S. aureus [4]; [12]) [µM] | other results
CCCCCCCCS(=O)(=O)Nc1ccc(Br)cc1C(=O)C(=O)NCCCNC(=N)N.Cl [Compound 43d, 2-(5-Bromo-2-(octylsulfonamido)phenyl)-N-(3-guanidinopropyl)-2-oxoacetamide hydrochloride] | showed conduction responses | 12 | 178 | – | – | – | – | –
CCCCCCCCS(=O)(=O)Nc1ccc(Br)cc1C(=O)C(=O)NCCCN(C)C [Compound 24a, 2-(5-Bromo-2-(octylsulfonamido)phenyl)-N-(3-(dimethylamino)propyl)-2-oxoacetamide] | showed conduction responses | 47 (≈ 23.7 µg/mL) | 37.4 | – | – | – | – | toxicity to human cells ([2]; MRC-5): high level of toxicity to human cells
Cl.N=C(N)NCCCC[C@H](NC(=O)C(=O)c1cc(F)ccc1NC(=O)c1ccc2ccccc2c1)C(=O)O [Compound 53, N^2-(2-(2-(2-naphthamido)-5-fluorophenyl)-2-oxoacetyl)-N^6-carbamimidoyllysine hydrochloride] | – | – | – | 67 | 108 | 67 | – | Minimum inhibitory concentration (MIC) E. coli (E. coli [3]; hydrochloride): 68 µg/mL; disruption of established biofilms of S. marcescens (S. marcescens [5]): 40%; disruption of established biofilms of S. aureus (S. aureus [7]): 46%; disruption of established biofilms of P. aeruginosa [8]: 42%
CCCCCCCCS(=O)(=O)Nc1ccc(Br)cc1C(=O)C(=O)NCCN(C)C.Cl [Compound 38b, 2-(2-(5-Bromo-2-(octylsulfonamido)phenyl)-2-oxoacetamido)-N,N-dimethylethan-1-aminium chloride] | showed conduction responses | 63 | 75.5 | – | – | – | – | –
Cl.N=C(N)NCCCNC(=O)C(=O)c1cc(Cl)ccc1NC(=O)c1ccc2ccccc2c1 [Compound 36, N-(4-Chloro-2-(2-((3-guanidinopropyl)amino)-2-oxoacetyl)phenyl)-2-naphthamide hydrochloride] | – | – | – | > 110 | 8 | 71 | 16 | IC50 [9]: 224 µM; disruption of established biofilms of E. coli (E. coli [10]): 43%
Cl.N=C(N)NCCCNC(=O)C(=O)c1cc(Br)ccc1NC(=O)c1ccc2ccccc2c1 [Compound 35, N-(4-Bromo-2-(2-((3-guanidinopropyl)amino)-2-oxoacetyl)phenyl)-2-naphthamide hydrochloride] | – | – | – | > 110 | 6 | – | 12.5 | disruption of established biofilms of S. marcescens (S. marcescens [5]): 49%; IC50 [9]: 174 µM; disruption of established biofilms of E. coli (E. coli [10]): 46%
COC(=O)[C@H](CCCNC(=N)N)NC(=O)[C@H](CCCNC(=N)N)NC(=O)C(=O)c1cc(Br)ccc1NC(=O)c1ccc2ccccc2c1.Cl.Cl [Compound 66, Methyl (2-(2-(2-naphthamido)-5-bromophenyl)-2-oxoacetyl)arginylargininate dihydrochloride] | – | – | – | 50 | 10 | 69 | 15.7 | toxicity (IC50) against MRC-5 human fibroblast cells ([9]; 72 h incubation): not reaching a 50% reduction of cell viability at the highest tested dose; disruption of established biofilms of P. aeruginosa ([8]; dihydrochloride): 54% and 55%
CCCCCCCCS(=O)(=O)Nc1ccccc1C(=O)C(=O)NCCCNC(=N)N.Cl [Compound 42d, N-(3-Guanidinopropyl)-2-(2-(octylsulfonamido)phenyl)-2-oxoacetamide hydrochloride] | showed conduction responses | 47 | 373 | – | – | – | – | –
